Data reported in patent US20260283924A1, “TOPICAL COMPOSITIONS FOR PROMOTING HAIR GROWTH” (ESTETRA SRL, priority 2023, published 2026).

What was measured:
[1] = tested on: Female wild-type (C57BL/6J) mice; test: In vivo LPS-induced delayed wound healing model: uterine weight and morphology (systemic effect), Example 4; conditions: topical over wounds, 60 μl total, day -1 to day 4; uteri at day 5
[2] = tested on: human anagen VI scalp HFs; test: LDH release into the medium (cytotoxicity), healthy donor hair follicle organ culture; assay type: cell-based; conditions: all tested concentrations (300 nM, 3 μM, 30 μM)
Procedure: 12-44 full-length frontotemporal hair follicles (HF) were obtained from four healthy human female donors >50 years old. […] Donor 2:29; Donor 3:44; Donor 4:32). After microdissection from skin as described in the art (Edelkamp et al., Methods Mol Biol, 2020, 2154:105-119; and Langan et al., Exp Dermatol, 2015 December; 24(12):903-1), HFs were placed in adequate culture medium and allowed a 24 h rest period to allow them to recover from the trauma of microdissection. Test substance (either vehicle (0.3% EtOH) or E4 at concentrations of 30 μM, 3 μM or 300 nM) was added to the medium at the end of the 24 h. Total culturing time was 5-9 days depending on the stage of the HFs in the vehicle group. The experimental design for a 6-days HF organ culture experiment is depicted in FIG. 9.
LDH is released from the cytoplasm of damaged cells into the culture medium. Therefore, the cytotoxicity of agents can be estimated based on the activity of LDH present in the culture medium using a colorimetric assay (Cytotoxicity Detection Kit [LDH], Roche) as described (Gherardini et al Int J Cosmet Sci, 2019 April; 41(2):164-182). The measurements were performed on supernatants collected on days respective to each culture and normalized to blank.
For the maximum release, HFs were treated with 1% Triton X 100 in vehicle medium at 37° C. for 30 minutes in order to induce maximum LDH release into the medium.

[3] = tested on: occipital hair follicles (healthy donor); test: Healthy donor hair follicle organ culture (ex vivo model), Example 8; assay type: cell-based, human; conditions: for K15 expression in the suprabulbar outer root sheath / number of cells (K15) in the suprabulbar outer root sheath: 300 nM; for density of cells in the dermal cup of anagen HFs / density of cells in the dermal papilla / density of cells in the dermal papilla stalk / hair matrix keratinocyte proliferation / total number of cells in the dermal cup of anagen HFs / total number of cells in the dermal papilla / total number of cells in the dermal papilla stalk: 3 μM
Procedure: In brief, 24 full-length occipital hair follicles (HF) were obtained from one healthy donor. […] Test substance (either vehicle (0.03% EtOH), E2 at concentration of 300 nM or E4 at concentrations of 3 μM or 300 nM) was added to the medium at the end of the 24 h. Total culturing time was 5 days depending on the stage of the HFs in the vehicle group. The experimental design is depicted in FIG. 23.

[4] = Antioxidant activity measured with Skin-Biosense sensor; conditions: H2O2 5 mM
Procedure: The antioxidant activity of E4 was evaluated using the Skin-Biosense® sensor, a technology developed by Qima Life Sciences (Gencay, France). This electrochemical sensor measures the electron transfer between two conductive elements: the sensor and a solution of H2O2. The H2O2 solution is used as a marker for the determination of the detoxification power: as H2O2 is one of the most oxidizing non-radical species, any molecule capable of decreasing its concentration can be considered as an antioxidant. When a sample is in the presence of H2O2, all its antioxidative species spontaneously react with it and decrease its quantity. As the area of the peak measured by the sensor is directly proportional to H2O2 concentration, the detoxifying activity of a compound is evaluated by its modulation of the peak area.
H2O2 5 mM in electrolytic ethanol solution was mixed with E4 in electrolytic ethanol solutions at several concentrations (0.16-0.5-1.6-5-16-50 mM), and the H2O2 oxidation peaks area were measured. The power of the antioxidant activity was calculated by comparing the peak area of the H202 solution with the peak area of the H2O2 solution mixed with an E4 solution.

[5] = 300 nM and 3 μM, listed as Estetrol

C[C@]12CC[C@@H]3c4ccc(O)cc4CC[C@H]3[C@@H]1[C@@H](O)[C@@H](O)[C@@H]2O [Formulation E4, 1,3,5 (10)-estratrien-3,15alpha,16alpha,17beta-tetrol]
uterine weight and morphology [1]: affects uterine weight in a dose-dependent manner
HF cytotoxicity (LDH release into the medium) [2]: did not induce HF cytotoxicity
HF cytotoxicity (LDH release into the medium) ([2]; listed as Estetrol): does not induce LDH release into the medium
K15 expression in the suprabulbar outer root sheath [3]: tendentially increased
number of cells (K15) in the suprabulbar outer root sheath [3]: tendentially increased
area of the dermal papilla ([3]; 300 nM and 3 μM): increased
hair shaft production (reduction vs vehicle) ([3]; 300 nM and 3 μM): tendentially
microscopic hair cycle: anagen ([3]; 300 nM and 3 μM): maintained HFs in anagen
number of CD34+ cells in the suprabulbar outer root sheath ([3]; 300 nM and 3 μM): decreased
area of the dermal papilla [3, 5]: increases the area
microscopic hair cycle: anagen [3, 5]: maintain hair follicles in anagen
number of CD34+ cells in the suprabulbar outer root sheath [3, 5]: decreases the number of CD34+ cells
K15 expression in the suprabulbar outer root sheath ([3]; listed as estetrol): tendentially increase K15 expression
number of cells (K15) in the suprabulbar outer root sheath ([3]; listed as estetrol): tendentially increase
density of cells in the dermal cup of anagen HFs [3]: significantly decreased
density of cells in the dermal papilla [3]: tendentially decreased
density of cells in the dermal papilla stalk [3]: decreased
hair matrix keratinocyte proliferation [3]: tendentially increased
total number of cells in the dermal cup of anagen HFs [3]: significantly decreased
total number of cells in the dermal papilla [3]: tendentially decreased
total number of cells in the dermal papilla stalk [3]: decreased
microscopic hair cycle: anagen maintenance ([3]; 3 μM compared with 300 nM): even more prominently
density of cells in the dermal cup of anagen HFs ([3]; listed as Estetrol): significantly decreases
density of cells in the dermal papilla ([3]; listed as Estetrol): tendentially decreases
density of cells in the dermal papilla stalk ([3]; listed as Estetrol): decreases the density of cells in the dermal papilla stalk
hair matrix keratinocyte proliferation ([3]; listed as Estetrol): increased
total number of cells in the dermal cup of anagen HFs ([3]; listed as Estetrol): significantly decreases
total number of cells in the dermal papilla ([3]; listed as Estetrol): tendentially decreases
total number of cells in the dermal papilla stalk ([3]; listed as Estetrol): tendentially
antioxidant activity (in words) ([4]; E4 0.16-50 mM): potent antioxidant activity
antioxidant activity ([4]; highest E4 concentration, 50000 µM): 100%
antioxidant activity, mean power ([4]; molar ratio E4/H2O2 of 1): 77.5%
